Counter-ions that a name gives are not always drawn. Where only a bound is given, the exact number is not on record here.

The nature of the series: in vitro. The following applies: rat, gh3-tre-luc cells.

As for `COCN(COC)c1nc(N(COC)COC)nc(N(COC)COC)n1` [Hexa(methoxymethyl)melamine], the half-maximal cytotoxic concentration (CC50) – broadly, the concentration that lowers cell viability or growth by half – at 24 h (AC50 (uM) modified / 1000) was over 90 µM.
On the same count and under the same terms, then `CCOC(=O)Nc1ccc2c(c1)N(C(=O)CN(C)C)c1ccccc1CC2` [Tiracizine], with 41.3 µM.
Take `NCC1(Cc2noc(=O)[nH]2)CCCCC1` [PD 0200347]: where the note is “AC50 (uM) modified / 1000”, the CC50 at 24 h was over 90 µM.
Same read-out and setting: then `O=C(CCl)Nc1ccccc1` [2-Chloro-N-phenylacetamide], with 23.7 µM; and `CC(=O)c1ccc2c(c1)CCCC2` [6-Acetyl-1,2,3,4-tetrahydronaphthalene], with over 90 µM; and `CCN(CC)c1ccc(C(=C2C=CC(=[N+](CC)CC)C=C2)c2ccc(S(=O)(=O)O)cc2S(=O)(=O)[O-])cc1` [Sulfan blue], with over 90 µM.
On the same count and under the same terms, then `CC(=O)CC(C)(C)O` [Diacetone alcohol], with over 90 µM; and `C=C[Si](C)(C=C)O[Si](C)(C)C` [Divinyltetramethyldisiloxane], with over 90 µM; and `O=C(O)c1ccc2c(c1)C(=O)OC2=O` [Trimellitic anhydride], with over 90 µM.
Turning to `CCC1(c2ccccc2)CCC(=O)NC1=O` (stereo not drawn) [Glutethimide], the CC50 at 24 h (AC50 (uM) modified / 1000, Tox21_110001=Tox21_111641, viability, 1 nM T3 present, 24 h) was over 50 µM.
As for `COCC(C)O` (stereo not drawn) [1-Methoxy-2-propanol], the CC50 at 24 h (AC50 (uM) modified / 1000) was over 90 µM.
`C[C@]12CC[C@H](O)C[C@H]1CC[C@@H]1[C@@H]2CC[C@]2(C)[C@@H](c3ccc(=O)oc3)C[C@H]3O[C@]132` [Bufogenin] returned a CC50 at 24 h (AC50 (uM) modified / 1000, Tox21_110001=Tox21_112671, viability, 1 nM T3 present, 24 h) of over 50 µM.
`OC1(c2ccc(Cl)c(C(F)(F)F)c2)CCN(CCCC(c2ccc(F)cc2)c2ccc(F)cc2)CC1` [Penfluridol] yielded a half-maximal cytotoxic concentration (CC50) at 24 h (AC50 (uM) modified / 1000) of 3.98 µM.
For the setting “AC50 (uM) modified / 1000”, `CCCCCCCCCCCC(=O)NCCCN(C)C` [N-[3-(Dimethylamino)propyl]dodecanamide] registered a CC50 at 24 h of 18 µM.
The same measure, in the same setting: as for `CCN(CC)c1ccc(C(=C2C=CC(=[N+](CC)CC)C=C2)c2ccccc2)cc1` [Brilliant Green], the figure is 0.384 µM; as for `O=S1(=O)CCCC1` [Sulfolane], over 90 µM.
The same measure, in the same setting: as for `IC(I)I` [Iodoform], the figure is over 90 µM.
Under “AC50 (uM) modified / 1000, Tox21_110001=Tox21_113271, viability, 1 nM T3 present, 24 h”, `CCOC(=O)NC(C)(C)Cc1ccc(Cl)cc1` [Cloforex] returned a CC50 at 24 h of over 50 µM.
Consider `O=CCc1ccccc1` [Phenylacetaldehyde], for which, for the setting “AC50 (uM) modified / 1000”, the cytotoxic concentration (CC50) at 24 h was over 90 µM.
The same measure, in the same setting: then `Nc1ccc(S(=O)(=O)Nc2ncccn2)cc1` [Sulfadiazine], with over 20 µM.
`CCCCC(CC)COCCC#N` (stereo not drawn) [3-((2-Ethylhexyl)oxy)propionitrile] displayed a CC50 at 24 h (AC50 (uM) modified / 1000) of over 90 µM.
The same measure, in the same setting: as for `COc1nc(N)nc2c1ncn2[C@@H]1O[C@H](CO)[C@@H](O)[C@@H]1O` [Nelarabine], the figure is over 50 µM; as for `CCn1cc(C(=O)O)c(=O)c2cnc(N3CCCC3)nc21` [Piromidic acid], over 20 µM.
Consider `CNC(=O)Oc1c(C(C)(C)C)cc(C)cc1C(C)(C)C` [Terbucarb], for which the half-maximal cytotoxic concentration (CC50) at 24 h (AC50 (uM) modified / 1000, Tox21_110001=Tox21_302210, viability, 1 nM T3 present, 24 h) was over 90 µM.
Under “AC50 (uM) modified / 1000”, `Cc1c(I)c(=O)n(-c2ccccc2)n1C` [Iodoantipyrine] returned a cytotoxic concentration (CC50) at 24 h of over 50 µM.
Still for that read-out and setting: as for `CCCCOCCOC(=O)c1ccccc1C(=O)OCCOCCCC` [Bis(2-butoxyethyl) phthalate], the figure is over 90 µM.
With `O=C(Nc1ccccc1)OCC(CN1CCCCC1)OC(=O)Nc1ccccc1` (stereo not drawn) [Diperodon hydrochloride], the CC50 at 24 h (AC50 (uM) modified / 1000) amounted to 10.5 µM.
Still for that read-out and setting: then `CCN(CC)CCO` [N,N-Diethylethanolamine], with over 100 µM; and `CS(=O)(=O)c1ccc(Cl)cc1` [4-Chlorophenyl methyl sulfone], with over 90 µM; and `CCSC(=O)N(CC)CC` [Ethiolate], with over 90 µM.
`O=P(O)(O)c1ccccc1` [Phenylphosphonic acid]: the CC50 at 24 h (AC50 (uM) modified / 1000, Tox21_110001=Tox21_302060, viability, 1 nM T3 present, 24 h) is over 90 µM.
The compound `C=C1C[C@H]2[C@@H]3C=C(C)C4=CC(=O)CC[C@]4(C)[C@H]3CC[C@]2(C)[C@@]1(OC(C)=O)C(C)=O` [Melengestrol acetate] gave a CC50 at 24 h (AC50 (uM) modified / 1000) of over 60 µM.
Still for that read-out and setting: as for `O=C(O)Cc1sc(-c2ccccc2)nc1-c1ccc(Cl)cc1` [Fentiazac], the figure is over 50 µM; as for `COc1cc2c(cc1OC)[C@@H](c1ccccc1)CN(C)CC2` [Trepipam maleate], over 50 µM.
Under “AC50 (uM) modified / 1000, Tox21_110001=Tox21_202262, viability, 1 nM T3 present, 24 h”, `OCC(O)CCl` (stereo not drawn) [3-Chloro-1,2-propanediol] had a CC50 at 24 h of over 90 µM.
Regarding `CC(C)[C@H](N)C(=O)OCCOCn1cnc2c(=O)[nH]c(N)nc21` [Valacyclovir hydrochloride], the CC50 at 24 h (AC50 (uM) modified / 1000) is over 50 µM.
Still for that read-out and setting: as for `C[Si](C)(C)Cl` [Chlorotrimethylsilane], the figure is over 90 µM.
On the same count and under the same terms, as for `O=[N+]([O-])c1cc(C(F)(F)F)cc([N+](=O)[O-])c1Cl` [2-Chloro-1,3-dinitro-5-(trifluoromethyl)benzene], the figure is over 90 µM; as for `CCCCCCCCS(=O)(=O)O` [Sodium 1-octanesulfonate], over 90 µM.
On the same count and under the same terms, as for `CC(=O)C(C)O` (stereo not drawn) [Acetoin], the figure is over 90 µM; as for `Cc1nc(N)nc(N)n1` [6-Methyl-1,3,5-triazine-2,4-diamine], over 90 µM.
`COc1ccc(S(=O)(=O)Nc2nnc(CC(C)C)s2)cc1` [Glysobuzole] showed a half-maximal cytotoxic concentration (CC50) at 24 h (AC50 (uM) modified / 1000) of over 50 µM.
On the same count and under the same terms, as for `CCCCCC1CCC(=O)O1` (stereo not drawn) [gamma-Nonanolactone], the figure is over 90 µM.
Regarding `O=NN(CCO)CCO` [N-Nitrosodiethanolamine], the CC50 at 24 h (AC50 (uM) modified / 1000, Tox21_110001=Tox21_200283, viability, 1 nM T3 present, 24 h) was over 90 µM.
In the case of `CC(=O)CC(c1ccc([N+](=O)[O-])cc1)c1c(O)c2ccccc2oc1=O` (stereo not drawn) [Acenocoumarol], where the note is “AC50 (uM) modified / 1000”, the CC50 at 24 h was over 20 µM.
The compound `CCOc1cc(CC(=O)N[C@@H](CC(C)C)c2ccccc2N2CCCCC2)ccc1C(=O)O` [Repaglinide] returned a CC50 at 24 h (AC50 (uM) modified / 1000) of over 20 µM.
On the same count and under the same terms, then `CC(=O)N[C@@H]1[C@@H](O)[C@H](O)[C@@H](CO)O[C@H]1O` [N-Acetylglucosamine], with over 50 µM.
The same measure, in the same setting: as for `O=C(N[C@@H]1N=C(c2ccccc2F)c2cccc3c2N(CC3)C1=O)c1cc2ccccc2[nH]1` [N-[(3R)-1-(2-Fluorophenyl)-4-oxo-3,4,6,7-tetrahydro[1,4]diazepino[6,7,1-hi]indol-3-yl]-1H-indole-2-carboxamide], the figure is over 50 µM.
In turn, `C=CCBr` [Allyl bromide] displayed a 50% cytotoxic concentration (CC50) at 24 h (AC50 (uM) modified / 1000, Tox21_110001=Tox21_200801, viability, 1 nM T3 present, 24 h) of over 100 µM.
Under “AC50 (uM) modified / 1000, Tox21_110001=Tox21_200633, viability, 1 nM T3 present, 24 h”, `CCC(C)Br` (stereo not drawn) [2-Bromobutane] gave a cytotoxic concentration (CC50) at 24 h of over 100 µM.
As for `Oc1ccc(Cl)c(Cl)c1` [3,4-Dichlorophenol], the CC50 at 24 h (AC50 (uM) modified / 1000, Tox21_110001=Tox21_200675, viability, 1 nM T3 present, 24 h) was over 90 µM.
As to `CC1=CC(=O)CC(C)(C)C1` [Isophorone], the 50% cytotoxic concentration (CC50) at 24 h (AC50 (uM) modified / 1000) was over 90 µM.
Still for that read-out and setting: as for `C=CC(O)CCCCC` (stereo not drawn) [1-Octen-3-ol], the figure is over 90 µM.
On to `C[C@@H]([C@H](O)c1ccccc1)N(C)C` [Methylephedrine], for which the half-maximal cytotoxic concentration (CC50) at 24 h (AC50 (uM) modified / 1000, Tox21_110001=Tox21_111521, viability, 1 nM T3 present, 24 h) was over 50 µM.
On to `O=Cc1ccc(Cl)cc1Cl` [2,4-Dichlorobenzaldehyde], for which, for the setting “AC50 (uM) modified / 1000, Tox21_110001=Tox21_201217, viability, 1 nM T3 present, 24 h”, the CC50 at 24 h is over 90 µM.
In the case of `Oc1cccc(Cl)c1` [3-Chlorophenol], the CC50 at 24 h (AC50 (uM) modified / 1000) was over 90 µM.
Regarding `CCOc1ccc(Cc2nccc3cc(OCC)c(OCC)cc23)cc1OCC` [Ethaverine hydrochloride], the CC50 at 24 h (AC50 (uM) modified / 1000) is over 20 µM.
Where the note is “AC50 (uM) modified / 1000, Tox21_110001=Tox21_300606, viability, 1 nM T3 present, 24 h”, `O=C(O)C(F)(F)C(F)(F)C(F)(F)C(F)(F)C(F)(F)C(F)(F)C(F)(F)C(F)(F)C(F)(F)C(F)(F)F` [Perfluoroundecanoic acid] gave a CC50 at 24 h of over 90 µM.
Regarding `CN1[C@@H]2CC[C@H]1C[C@@H](OC(c1ccccc1)c1ccc(Cl)cc1)C2` (stereo partly drawn) [Clobenztropine], for the setting “AC50 (uM) modified / 1000”, the 50% cytotoxic concentration (CC50) at 24 h was 5.13 µM. This lies in the single-digit micromolar range.
Same read-out and setting: then `NC(=O)OC[C@@H]1[C@H](NC(=O)/C(=N\OCC(=O)O)c2csc(N)n2)C(=O)N1S(=O)(=O)O` [Carumonam sodium], with over 50 µM; and `CC(=O)[C@H]1CC[C@H]2[C@@H]3C=CC4=CC(=O)CC[C@@]4(C)[C@@H]3CC[C@]12C` [Dydrogesterone], with over 20 µM.
Still for that read-out and setting: then `CN1CCN(C2Cc3ccccc3Sc3ccc(Cl)cc32)CC1` (stereo not drawn) [Octoclothepine maleate], with 7.55 µM; and `C/C=C/C=O` [Crotonaldehyde], with over 90 µM; and `O=C(c1ccc(Cl)cc1)c1ccc(Cl)cc1` [4,4'-Dichlorobenzophenone], with over 90 µM.
Consider `O=C(O)CCCCC1CCSS1` (stereo not drawn) [alpha-Lipoic acid], for which the cytotoxic concentration (CC50) at 24 h (AC50 (uM) modified / 1000) is over 90 µM.
With `COc1cc(CC(C)N)cc2c1OCO2` (stereo not drawn) [1-(7-Methoxy-1,3-benzodioxol-5-yl)propan-2-amine hydrochloride], the CC50 at 24 h (AC50 (uM) modified / 1000, Tox21_110001=Tox21_112842, viability, 1 nM T3 present, 24 h) is over 100 µM.
For the compound `CCCCCCCCCCCCCCCCCBr` [1-Bromoheptadecane], for the setting “AC50 (uM) modified / 1000”, the cytotoxic concentration (CC50) at 24 h was over 20 µM.
For the compound `COC(=O)CCSCCC(=O)OC` [Dimethyl 3,3'-thiodipropionate], for the setting “AC50 (uM) modified / 1000”, the CC50 at 24 h is over 90 µM.
The same measure, in the same setting: as for `N#CCCC(Br)(C#N)CBr` (stereo not drawn) [1,2-Dibromo-2,4-dicyanobutane], the figure is 16.2 µM.

For the origin of these results see paper PMC6792352, “Limited Chemical Structural Diversity Found to Modulate Thyroid Hormone Receptor in the Tox21 Chemical Library” (Environmental Health Perspectives, 2019).
